Structures can show the parent of a compound that is named as a salt. Where two headings read alike, the source gives them in different places. Marks after values point to notes of the source that are not given here.

One experiment deals with NA, DA and 5-HT. As to the kind of experiment: In vivo brain microdialysis: extracellular monoamines in striatum and frontal cortex. On the set-up: species or system Sprague-Dawley rats. To be noted: 50 μmol/kg s.c., n=1-3; for response vs control in vivo at 50 µmol/kg: Rattus norvegicus, sc. An excerpt: The microdialysis technique is a well-established technique for measuring extracellular levels of neurotransmitters (Ungerstedt, J Int Med, 1991, 230; 365-73). The microdialysis technique was used to measure the effect of compounds disclosed herein upon the efflux of monoamine transmitters (NA, DA and 5-HT) in striatum and frontal cortex in conscious, freely moving rats.
Male Sprague-Dawley rats weighing 280-320 g were used throughout the experiments. Before the experiment the animals were housed in groups, maximum five animals in each cage, with free access to water and food. The animals were housed at least one week prior to surgery and use in the experiments.
A modified version (Waters et al., J Neural Transm Gen Sect, 1994, 98(1); 39-55) of the !-shaped probe (Santiago and Westerink, N-S Arch Pharmacol, 1990, 342; 407-14) with the AN69 polyacrylonitrile/sodium methyl sulfonate copolymer (HOSPAL; o.d/i.d. 310/220 μm: dialysis membrane (Gambro, Lund, Sweden) was used in the microdialysis experiments. In the dorsal striatum, probes with an exposed length of 3 mm of dialysis membrane were used and in the prefrontal cortex the corresponding length was 2.5 mm. The rats were operated under isoflurane inhalation anesthesia while mounted into a Kopf stereotaxic instrument. Coordinates were calculated relative to bregma; dorsal striatum AP+1.0, ML±2.6, DV 6.2; Pf cortex, AP+3.2, ML±1.2, DV −4.0 8°, according to Paxinos and Watson (New York, Academic Press, 1986; FIG. 8 and FIG. 14). The dialysis probe was positioned in a burr hole under stereotaxic guidance and cemented with phosphatine dental cement (DAB Dental).
The rats were housed individually in cages for 48 h before the dialysis experiments, allowing them to recover from surgery and minimizing the risk of drug interactions with the anesthetics during the following experiments. During this period the rats had free access to food and water. On the day of the experiment the rats were connected to a micro-perfusion pump via a swivel and were replaced in the cage where they could move freely within its confinements. The perfusion medium was a Ringer's solution containing (in mmol/l): NaCl; 140, CaCl2); 1.2, KCl; 3.0, MgCl2; 1.0 (Moghaddam and Bunney. Neurochem., 1989, 53; 652-4). The pump was set to a perfusion speed of 2 μl/min and 40 μl sample volume were collected every 20 min.
The rats were perfused for at least 40 min before sampling began. Five fractions of each 20 min were collected and the last three were used for the establishment of the baseline. After collection of baseline fractions, the pharmacological challenge to the dialysis experiment started. Test compounds were administrated by injection (s.c.) in a volume of 5 ml/kg, with 0.9% NaCl (saline) as vehicle.
The analytical method were based on two chromatographic separations dedicated for amines or acids. Two chromatographic systems shared a common auto injector with a 10-port valve and two sample loops for simultaneous injection on the two systems.
The acids were separated by reversed phase chromatography while the amines were separated by reversed phase ion pairing chromatography preceded by a reverse phase separation in a column switching configuration. Three separation columns (Luna C18 (2), dp 3 μm, 2 mm i.d., Phenomenex) of different lengths were used. Electrochemical detection was accomplished on glassy carbon electrodes (MF-1000, Bioanalytical Systems, Inc.)
The aqueous mobile phase (0.6 ml/min) for the acid system contained citric acid (40 mM, dipotassium hydrogen phosphate 10 mM, methanol 8-11% (v/v) and EDTA 0.1 mM. Column length was 30 mm and detection potential relative to Ag/AgCl reference was 0.74V.
The aqueous ion pairing mobile phase (0.4 ml/min) for the amine system contained citric acid 5 mM, sodium citrate 10 mM, acetone 9% (v/v), tetrahydrofurane 3% (v/v), dodecane sulphonic acid 0.025 mM, and EDTA 0.1 mM. Column length was 50 mm and the preceding column was 20 mm. […]

Experiment [1] has as its target Human 5-HT Transporter (SERT (h)) (Homo sapiens (Human), UniProt P31645). Description: Radioligand binding assay, human 5-HT transporter ([3H]imipramine). To be noted: 1 h; single concentration 1.0 E-5 M, duplicate, mean values. The protocol: (The measurement was performed as described in Tatsumi, M., Jansen, K., Blakely, R. D. and Richelson, E. (1999), Pharmacological profile of neuroleptics at human monoamine transporters, Eur. J. Pharmacol.
Cell membrane homogenates (12 μg protein) are incubated for 60 min at 22° C. with 2 nM [3H]imipramine in the absence or presence of the test compound in a buffer containing 50 mM Tris-HCl (pH 7.4), 120 mM NaCl, 5 mM KCl and 0.1% BSA.
Nonspecific binding is determined in the presence of 10 μM imipramine.
Following incubation, the samples are filtered rapidly under vacuum through glass fiber filters (GF/B, Packard) presoaked with 0.3% PEI and rinsed several times with an ice-cold buffer containing 50 mM Tris-HCl and 150 mM NaCl using a 96-sample cell harvester (Unifilter, Packard). The filters are dried then counted for radioactivity in a scintillation counter (Topcount, Packard) using a scintillation cocktail (Microscint 0, Packard).
The results are expressed as a percent inhibition of the control radioligand specific binding
(§1) […] Reported values are mean values.

For experiment [2], the target named is Human Norepinephrine Transporter (NET (h)) (Homo sapiens (Human), UniProt P23975). As to the kind of experiment: Radioligand binding assay, human norepinephrine transporter ([3H]nisoxetine). Conditions: 2 h; single concentration 1.0 E-5 M, duplicate, mean values. The protocol:
(The measurement was performed as described in Pacholczyk, T., Blakely, R. D. and Amara, S. G. (1991), Expression cloning of a cocaine- and antidepressant-sensitive human noradrenaline transporter, Nature, 350: 350)
Cell membrane homogenates (20 μg protein) are incubated for 120 min at 4° C. with 1 nM [3H]nisoxetine in the absence or presence of the test compound in a buffer containing 50 mM Tris-HCl (pH 7.4), 120 mM NaCl and 5 mM KCl. Nonspecific binding is determined in the presence of 1 μM desipramine. Following incubation, the samples are filtered rapidly under vacuum through glass fiber filters (GF/B, Packard) presoaked with 0.3% PEI and rinsed several times with ice-cold 50 mM Tris-HCl using a 96-sample cell harvester (Unifilter, Packard). The filters are dried then counted for radioactivity in a scintillation counter (Topcount, Packard) using a scintillation cocktail (Microscint 0, Packard).
(§2) The results are expressed as a percent inhibition of the control radioligand specific binding.
as §1

Experiment [3] concerns the target Human Dopamine Transporter (DAT (h)) (Homo sapiens (Human), UniProt Q01959). As to the kind of experiment: Radioligand binding assay, human dopamine transporter ([3H]BTCP). Conditions: 2 h; single concentration 1.0 E-5 M, duplicate, mean values. The protocol: (The measurement was performed as described in Pristuba, Z. B., Wilson, J. M., Hoffman, B. J., Kish, S. J. and Nisnik, H. B. (1994), Pharmacological heterogeneity of the cloned and native human dopamine transporter: disassociation of [3H]WIN 35,428 and [3H]GBR 12,935 binding, Mol. Pharmacol., 45: 125)
Cell membrane homogenates (20 μg protein) are incubated for 120 min at 4° C. with 4 nM
[3H]BTCP in the absence or presence of the test compound in a buffer containing 50 mM Tris-HCl (pH 7.4) and 100 mM NaCl. Nonspecific binding is determined in the presence of 10 μM BTCP. Following incubation, the samples are filtered rapidly under vacuum through glass fiber filters (GF/B, Packard) presoaked with 0.3% PEI and rinsed several times with ice-cold 50 mM Tris-HCl using a 96-sample cell harvester (Unifilter, Packard). The filters are dried then counted for radioactivity in a scintillation counter (Topcount, Packard) using a scintillation cocktail (Microscint 0, Packard).
as §2, §1

Setting [4] is: frontal cortex, read-out: 5-HT FC, maximum effect compared to baseline ± SEM.
The mark [5] stands for this setting: frontal cortex, read-out: DA FC, maximum effect compared to baseline ± SEM.
Where [6] appears, read: frontal cortex, read-out: NA FC, maximum effect compared to baseline ± SEM.
[7] abbreviates: striatum, read-out: DA Stri, maximum effect compared to baseline ± SEM.
The mark [8] stands for this setting: striatum, read-out: 5-HT Stri, maximum effect compared to baseline ± SEM.

Human Dopamine Transporter (DAT (h)), sequence (Q01959 whole entry): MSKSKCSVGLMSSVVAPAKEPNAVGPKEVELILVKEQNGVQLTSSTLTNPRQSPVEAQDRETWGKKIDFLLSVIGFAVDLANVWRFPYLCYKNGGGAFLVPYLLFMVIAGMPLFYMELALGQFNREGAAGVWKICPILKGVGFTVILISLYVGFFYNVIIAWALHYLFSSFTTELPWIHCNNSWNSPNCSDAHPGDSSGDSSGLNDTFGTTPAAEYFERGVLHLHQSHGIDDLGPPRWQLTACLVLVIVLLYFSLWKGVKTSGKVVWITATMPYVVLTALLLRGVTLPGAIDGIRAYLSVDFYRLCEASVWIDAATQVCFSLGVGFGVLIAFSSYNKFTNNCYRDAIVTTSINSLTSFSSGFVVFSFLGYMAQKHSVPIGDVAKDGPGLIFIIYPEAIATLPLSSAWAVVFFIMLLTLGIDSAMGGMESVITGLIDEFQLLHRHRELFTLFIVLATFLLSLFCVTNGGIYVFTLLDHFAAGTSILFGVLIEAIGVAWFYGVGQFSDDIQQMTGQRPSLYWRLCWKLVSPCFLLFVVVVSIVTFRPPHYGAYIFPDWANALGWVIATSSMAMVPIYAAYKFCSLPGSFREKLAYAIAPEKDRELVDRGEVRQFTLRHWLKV
Human 5-HT Transporter (SERT (h)), sequence (P31645 whole entry): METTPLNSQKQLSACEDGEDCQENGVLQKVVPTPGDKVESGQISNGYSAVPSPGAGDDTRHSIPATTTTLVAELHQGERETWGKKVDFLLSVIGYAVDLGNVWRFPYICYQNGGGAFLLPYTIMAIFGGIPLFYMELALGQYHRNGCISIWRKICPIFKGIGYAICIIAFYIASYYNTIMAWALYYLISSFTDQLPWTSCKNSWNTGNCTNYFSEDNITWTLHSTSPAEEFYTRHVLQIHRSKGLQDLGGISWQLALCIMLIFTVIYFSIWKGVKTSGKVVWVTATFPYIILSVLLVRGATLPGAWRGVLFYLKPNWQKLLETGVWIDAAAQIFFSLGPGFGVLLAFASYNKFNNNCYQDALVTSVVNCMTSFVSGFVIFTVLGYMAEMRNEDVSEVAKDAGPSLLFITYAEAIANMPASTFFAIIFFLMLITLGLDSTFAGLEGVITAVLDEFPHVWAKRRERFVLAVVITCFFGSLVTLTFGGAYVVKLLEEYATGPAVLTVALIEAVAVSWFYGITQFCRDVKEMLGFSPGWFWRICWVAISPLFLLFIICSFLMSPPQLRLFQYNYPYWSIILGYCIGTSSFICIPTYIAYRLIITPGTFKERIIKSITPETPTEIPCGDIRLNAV
Human Norepinephrine Transporter (NET (h)), sequence (P23975 whole entry): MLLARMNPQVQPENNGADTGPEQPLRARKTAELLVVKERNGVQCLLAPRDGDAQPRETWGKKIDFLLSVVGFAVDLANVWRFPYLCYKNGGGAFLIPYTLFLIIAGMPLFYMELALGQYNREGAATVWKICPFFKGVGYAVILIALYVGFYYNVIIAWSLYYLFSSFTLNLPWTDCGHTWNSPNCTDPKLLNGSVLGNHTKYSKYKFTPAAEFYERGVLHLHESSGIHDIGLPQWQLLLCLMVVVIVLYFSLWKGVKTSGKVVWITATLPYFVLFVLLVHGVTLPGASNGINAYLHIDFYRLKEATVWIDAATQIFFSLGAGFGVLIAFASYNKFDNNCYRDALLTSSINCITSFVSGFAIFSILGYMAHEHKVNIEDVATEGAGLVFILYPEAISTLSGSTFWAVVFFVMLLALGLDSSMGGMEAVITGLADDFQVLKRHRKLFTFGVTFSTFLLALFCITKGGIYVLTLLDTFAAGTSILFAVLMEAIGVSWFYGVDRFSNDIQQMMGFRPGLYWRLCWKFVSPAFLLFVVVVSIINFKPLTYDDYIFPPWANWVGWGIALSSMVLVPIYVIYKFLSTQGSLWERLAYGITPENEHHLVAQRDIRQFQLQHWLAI

Consider `Fc1ccc(OC2CNC2)c(F)c1F` [Example 10, 3-(2,3,4-trifluoro-phenoxy)azetidine fumaric acid salt], for which the response vs control in vivo at 50 µmol/kg in the experiment on NA, DA and 5-HT (setting [4]) worked out at 709 ± 139%; in the experiment with NA, DA and 5-HT (setting [5]) it was 466 ± 161%; in the experiment on NA, DA and 5-HT (setting [6]), 799 ± 137%; in the experiment on NA, DA and 5-HT (setting [7]), 126 ± 10%. Moreover, the inhibition at 10 µM in experiment [1] was 29%; in experiment [2], -2%; in experiment [3], 15%.

Take `CN1CC(Oc2c(F)c(F)cc(F)c2F)C1` [Example 38, 1-methyl-3-(2,3,5,6-tetrafluorophenoxy)azetidine hydrochloric acid salt]: the “NA Stri, maximum effect compared to baseline ± SEM” value in the experiment on NA, DA and 5-HT (striatum) was 306 ± 146^a % of control. Besides, the response vs control in vivo at 50 µmol/kg in the experiment on NA, DA and 5-HT (setting [4]) was found to be 148 ± 12%; in the experiment on NA, DA and 5-HT (setting [5]) it was 467 ± 20%; in the experiment on NA, DA and 5-HT (setting [6]), 422 ± 102%; in the experiment with NA, DA and 5-HT (setting [8]), 205 ± 20%; with NA, DA and 5-HT (setting [7]), 203 ± 8%. For the same compound, the inhibition at 10 µM was -11% in experiment [1], 6% in experiment [2] and 11% in experiment [3].

Turning to `Fc1c(F)c(F)c(OC2CNC2)c(F)c1F` [Example 43, 3-(2,3,4,5,6-pentafluoro-phenoxy)azetidine hydrochloric acid salt], the inhibition at 10 µM in experiment [1] was -7.6%; in experiment [2], -1%; in experiment [3], 11%.

Regarding `Fc1cc(F)c(OC2CNC2)c(F)c1` [Example 49, 3-(2,4,6-Trifluorophenoxy)azetidine hydrochloric acid salt], in the experiment on NA, DA and 5-HT (striatum), the “NA Stri, maximum effect compared to baseline ± SEM” value is 353^b % of control. The response vs control in vivo at 50 µmol/kg was 391 ± 131% in the experiment with NA, DA and 5-HT (setting [5]); 862 ± 437% in the experiment with NA, DA and 5-HT (setting [6]); 573 ± 1% in the experiment with NA, DA and 5-HT (setting [8]); 135 ± 2% with NA, DA and 5-HT (setting [7]). The inhibition at 10 µM in experiment [1] was determined as 10%; in experiment [2] it was 6%; in experiment [3], 12%.

On to `Fc1cc(OC2CNC2)cc(F)c1F` [Example 50, 3-(3,4,5-Trifluorophenoxy)azetidine hydrochloric acid salt], for which the response vs control in vivo at 50 µmol/kg in the experiment on NA, DA and 5-HT (setting [4]) was 752 ± 235%; in the experiment on NA, DA and 5-HT (setting [5]), 787 ± 131%; with NA, DA and 5-HT (setting [8]), 574 ± 45%; with NA, DA and 5-HT (setting [7]) it was 139 ± 20%. For the same compound, the inhibition at 10 µM turned out to be 28% in experiment [1], 3% in experiment [2] and 17% in experiment [3].

As to `Fc1cc(F)c(OC2CNC2)cc1F` [Example 51, 3-(2,4,5-Trifluorophenoxy)azetidine hydrochloric acid salt], in the experiment with NA, DA and 5-HT (striatum), the “NA Stri, maximum effect compared to baseline ± SEM” value is recorded as 475^b % of control. Moreover, the response vs control in vivo at 50 µmol/kg amounted to 998 ± 470% in the experiment with NA, DA and 5-HT (setting [4]); 389 ± 134% with NA, DA and 5-HT (setting [5]); 910 ± 389% in the experiment on NA, DA and 5-HT (setting [6]); 663 ± 63% with NA, DA and 5-HT (setting [8]); 144 ± 4% with NA, DA and 5-HT (setting [7]). The inhibition at 10 µM was found to be 25% in experiment [1], 5% in experiment [2] and 10% in experiment [3].

The values above are taken from patent publication US10875829B1, “Azetidine derivatives useful as modulators of cortical catecholaminergic neurotransmission” (Integrative Research Laboratories Sweden AB, priority 2016, dated 2020).
